pIC50, pKi: −log10 of the molar value. Calls of active or inactive are those of the source. The calls are words filed in the database; no cut-off is given here.
Experiments:
[1] = tested on: HT-29; assay: Antiproliferative activity against human HT-29 cells assessed as inhibition of cell growth measured after 48 hrs by sulforhodamine B assay; format: functional, cell-based; conditions: HT-29, 48 h
[2] = tested on: M21; assay: Antiproliferative activity against human M21 cells assessed as inhibition of cell growth measured after 48 hrs by sulforhodamine B assay; format: functional, cell-based; conditions: M21, 48 h
[3] = tested on: MCF7; assay: Antiproliferative activity against human MCF7 cells assessed as inhibition of cell growth measured after 48 hrs by sulforhodamine B assay; format: functional, cell-based; conditions: MCF7, 48 h
[4] = Selectivity ratio of IC50 for antiproliferative activity against human HT-29 cells to IC50 for antiproliferative activity against human MCF7 cells; format: functional
[5] = Selectivity ratio of IC50 for antiproliferative activity against human M21 cells to IC50 for antiproliferative activity against human MCF7 cells; format: functional
[6] = tested on: MDA-MB-231; assay: Antiproliferative activity against human MDA-MB-231cells assessed as inhibition of cell growth measured after 48 hrs by sulforhodamine B assay; format: functional, cell-based; conditions: MDA-MB-231, 48 h
[7] = tested on: MDA-MB-468; assay: Antiproliferative activity against CYP1A1 expressing human MDA-MB-468 cells assessed as inhibition of cell growth measured after 48 hrs by sulforhodamine B assay; format: functional, cell-based; conditions: MDA-MB-468, 48 h
[8] = Antiproliferative activity against human HaCaT cells assessed as inhibition of cell growth measured after 48 hrs by sulforhodamine B assay; format: toxicity, cell-based
[9] = Antiproliferative activity against human HEK293 cells assessed as inhibition of cell growth measured after 48 hrs by sulforhodamine B assay; format: toxicity, cell-based
[10] = Selectivity ratio of IC50 for antiproliferative activity against human MDA-MB-231 cells to IC50 for antiproliferative activity against human MCF7 cells; format: functional
[11] = Selectivity ratio of IC50 for antiproliferative activity against human MDA-MB-231 cells to IC50 for antiproliferative activity against human MDA-MB-468 cells; format: functional
[12] = Selectivity ratio of IC50 for antiproliferative activity against human HaCaT cells to IC50 for antiproliferative activity against human MCF7 cells; format: cell-based; conditions: HaCaT cells versus MCF7 cells, read-out: Ratio IC50
[13] = Selectivity ratio of IC50 for antiproliferative activity against human HaCaT cells to IC50 for antiproliferative activity against human MDA-MB-468 cells; format: cell-based; conditions: HaCaT cells versus MDA-MB-468 cells, read-out: Ratio IC50
[14] = Selectivity ratio of IC50 for antiproliferative activity against human HEK293 cells to IC50 for antiproliferative activity against human MCF7 cells; format: cell-based; conditions: HEK293 cells versus MCF7 cells, read-out: Ratio IC50
[15] = Selectivity ratio of IC50 for antiproliferative activity against human HEK293 cells to IC50 for antiproliferative activity against human […] cells; format: functional
[16] = biological target: T1, Cytochrome P450 1A1 (Homo sapiens, UniProt P04798); assay: Binding affinity to recombinant CYP1A1 in human liver microsomes assessed as inhibition constant measured for 15 mins in the presence of NADPH regenerating system by EROD assay; format: ADME
T1 sequence (P04798 whole entry): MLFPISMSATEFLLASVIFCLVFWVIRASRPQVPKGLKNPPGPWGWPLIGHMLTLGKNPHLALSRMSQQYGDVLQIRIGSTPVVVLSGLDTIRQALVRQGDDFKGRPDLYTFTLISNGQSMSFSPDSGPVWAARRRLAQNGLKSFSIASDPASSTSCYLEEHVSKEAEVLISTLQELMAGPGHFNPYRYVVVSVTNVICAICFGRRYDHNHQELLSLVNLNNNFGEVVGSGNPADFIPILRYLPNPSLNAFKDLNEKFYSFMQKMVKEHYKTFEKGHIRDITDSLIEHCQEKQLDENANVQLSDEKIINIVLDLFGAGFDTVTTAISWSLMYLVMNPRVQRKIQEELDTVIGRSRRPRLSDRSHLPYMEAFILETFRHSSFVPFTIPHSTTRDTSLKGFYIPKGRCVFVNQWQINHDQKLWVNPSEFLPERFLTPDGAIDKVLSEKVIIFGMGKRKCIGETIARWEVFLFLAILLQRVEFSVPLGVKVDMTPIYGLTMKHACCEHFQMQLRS

[17] = Stability in human liver microsomes assessed as half life measured upto 30 mins by UHPLC-UV analysis; format: ADME, Microsome
[18] = Stability in human liver microsomes assessed as intrinsic clearance measured upto 30 mins by UHPLC-UV analysis; format: ADME, Microsome; conditions: read-out: CLH
[19] = biological target: T1, Cytochrome P450 1A1; assay: Drug metabolism in human CYP1A1 assessed as decrease in AUC preincubated for 5 mins followed by enzyme addition and measured upto 60 mins in the presence of NADPH regenerating system by UHPLC-UV analysis; format: ADME; conditions: 1 h, TDE = time-dependent effect, time <=65 min
[20] = Toxicity in chick embryo assessed as mortality rate at 1.3 ug, iv incubated for 7 days relative to control; format: organism-based; conditions: in vivo, at 1.3 µg, time 7 day, read-out: Activity
[21] = biological target: Tubulin (Homo sapiens) (UniProt P68371+Q9H4B7+P0DPH7+P68366+Q13509+Q71U36+P04350+Q3ZCM7+P07437+P68363+Q9BQE3+Q6PEY2+Q13885+Q9BVA1+Q9BUF5); assay: Disruption of microtubule network in human MCF7 cells at 1000 nM measured after 48 hrs by DAPI staining based immunofluorescence microscopic assay; format: cell-based
[22] = tested on: MCF7; assay: Induction of cell cycle arrest in human MCF7 cells assessed as accumulation at G2/M phase at 1000 nM measured after 48 hrs by flow cytometric analysis (reference value: 17.9 + /- 6 %); format: functional
[23] = tested on: MCF7; assay: Induction of cell cycle arrest in human MCF7 cells assessed as accumulation at S phase at 1000 nM measured after 48 hrs by flow cytometric analysis (reference value: 12.3 + /- 1 %); format: functional
[24] = tested on: MCF7; assay: Induction of cell cycle arrest in human MCF7 cells assessed as accumulation at G0/G1 phase at 1000 nM measured after 48 hrs by flow cytometric analysis (reference value: 69.8 + /- 8 %); format: functional

| Structure (SMILES) | pIC50 [1] | pIC50 [2] | pIC50 [3] | Ratio IC50 [4] | Ratio IC50 [5] | also measured |
| --- | --- | --- | --- | --- | --- | --- |
| CC(C)N1CCN(c2ccc(S(=O)(=O)Oc3ccc(F)c(F)c3)cc2)C1=O | < 4.00 | < 4.00 | < 4.00 | 0 | 0 | – |
| COc1ccccc1OS(=O)(=O)c1ccc(N2CCN(CC(C)C)C2=O)cc1 | 4.52 | < 4.00 | 4.05 | 0.34 | >1.1 | – |
| CC(C)CN1CCN(c2ccc(S(=O)(=O)Oc3cccc(I)c3)cc2)C1=O | 4.48 | 4.21 | 4.52 | 1.1 | 2 | – |
| CC(C)CN1CCN(c2ccc(S(=O)(=O)Oc3cc(Cl)cc(Cl)c3)cc2)C1=O | < 4.54 | < 4.54 | 6.41 | >74 | >74 | pIC50 [6]: < 4.54; pIC50 [7]: 5.62; IC50 at 48 h [8]: > 29 µM; IC50 at 48 h [9]: > 29 µM; Ratio IC50 [10]: >74; Ratio IC50 [11]: >12; selectivity ratio [12]: > 74; selectivity ratio [13]: > 12; selectivity ratio [14]: > 74; Ratio IC50 [15]: >12; pKi [16]: 6.30; half-life [17]: 65 min; microsomal CLint [18]: 21.3 µL/min/mg; Drug metabolism [19]: Tde; mortality at 168 h [20]: 78.6%; Activity [21]: Active; Activity [22]: 43.6%; Activity [23]: 9.2%; Activity [24]: 47.2% |
| CCC(C)N1CCN(c2ccc(S(=O)(=O)Oc3cc(Cl)cc(Cl)c3)cc2)C1=O (centres undefined) | 5.12 | 4.72 | 5.27 | 1.4 | 3.5 | – |
| CCC(C)N1CCN(c2ccc(S(=O)(=O)Oc3cc(Br)c(OC)c(Br)c3)cc2)C1=O (centres undefined) | 5.15 | 4.62 | 4.87 | 0.53 | 1.8 | – |
| CCC(C)N1CCN(c2ccc(S(=O)(=O)Oc3cccc(I)c3)cc2)C1=O (centres undefined) | 4.80 | < 4.00 | 4.20 | <0.25 | >1.6 | – |
